A short description of data set [1]: Permeation through heat-separated human epidermis (Franz-diffusion cell). In kind it is in vitro ADME. As to the method: (§1) […] of this solution was given on heat-separated human epidermis (breast, area 4.5 cm^2) which was mounted on a Franz-diffusion cell. The cell was filled with 23 ml of a mixture of 60 parts of a 0.9% NaCl-solution and 40 parts of polyethylene glycol 400 (v/v).

The conditions of data set [2]: cited from earlier work.
Data set [3] is described as follows: Recrystallization of applied saturated drug solution during the permeation experiment. In kind it is physicochemical. The conditions noted are these: applied crystal-free. As to the method: as §1

Regarding `COC(=O)C1=C(C)NC(C)=C(C(=O)OC)C1c1ccccc1[N+](=O)[O-]` [Nifedipine], the Flux was 0.35 μg/cm *h in data set [1] (8 h column), 7.44 μg/cm *h in data set [1] (24 h column), 6.13 μg/cm *h in data set [1] (32 h column) and 12.29 μg/cm *h in data set [1] (48 h column). In addition, the “correlation of hypotensive and untoward side effects with plasma concentration” value in data set [2] (clinical studies) is recorded as “correlated with the plasma nifedipine concentration”. Besides, the “variation of transient, high plasma levels” value in data set [2] (oral administration of conventional capsules) is “may vary by tenfold”. Further, in data set [2] (oral administration), the “interindividual variability of plasma levels” value is on record as “Extraordinary interindividual variability”. Further, in data set [2] (rapid increase of plasma nifedipine concentration), the “heart rate and blood pressure effect on rapid increase of plasma concentration” value is “marked increase in heart rate and little effect on blood pressure”.
For the compound `COCCOC(=O)C1=C(C)NC(C)=C(C(=O)OC(C)C)C1c1cccc([N+](=O)[O-])c1` (stereo not shown) [Nimodipine], the “recrystallization during the experiment” value in data set [3] is “recrystallization”.
With `O=[N+]([O-])OCC(CO[N+](=O)[O-])O[N+](=O)[O-]` [nitroglycerin], in data set [2] (transdermal nitroglycerin), the “tolerance observed in patients” value was “tolerance observed in patients”.
